The results in this text go back to PubChem BioAssay (NCI).

Test systems include SK-MEL-5 melanoma; OVCAR-4 ovarian; SN12C renal; NCI-H522 lung; HL-60(TB) leukemia; SNB-19 CNS; SK-OV-3 ovarian; EKVX NSCLC; UO-31 renal; IGROV1 ovarian.
Holding throughout (test): NCI-60 cell line screen, 48 h

“And” between values parts separate entries of the source, which are not always exact repeats. Identical values can stand only once.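 These data come from cells grown in 96-well plates and exposed to compound for 48 hours at five concentrations. The concentration for 50% growth inhibition is given as GI50. At the TGI there is no net growth.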

Consider `Fc1ccc(C2CC(c3cccc(Nc4ccncc4)c3)=NN2c2cc(Cl)cc(Cl)c2)cc1` (centres undefined), for which the GI50 with SK-MEL-5 melanoma is 1.81 µM; with OVCAR-4 ovarian it was 1.77 µM; with SN12C renal, 1.69 µM; in the experiment on NCI-H522 lung it was 1.88 µM; in the experiment with HL-60(TB) leukemia, 2.25 µM; in the experiment on SNB-19 CNS, 1.74 µM. For the same compound, the GI50 with SK-OV-3 ovarian is 1.79 µM; in the experiment on EKVX NSCLC it was 1.71 µM; in the experiment on UO-31 renal it was 1.36 µM; in the experiment with IGROV1 ovarian, 1.74 µM. The TGI with SK-MEL-5 melanoma was 3.34 µM; with OVCAR-4 ovarian it was 3.23 µM; with SN12C renal, 3.16 µM; with NCI-H522 lung, 3.9 µM; with HL-60(TB) leukemia, 5.14 µM; in the experiment on SNB-19 CNS, 3.32 µM. Further, the TGI in the experiment with SK-OV-3 ovarian amounted to 3.54 µM; in the experiment on EKVX NSCLC it was 3.38 µM; with UO-31 renal, 2.66 µM; with IGROV1 ovarian, 3.3 µM.

`COC(=O)c1nc(-c2ccc3c(n2)C(=O)C(N)=C(OC)C3=O)c(N)c(-c2ccc(OC)c(OC)c2O)c1C`: the TGI with SK-MEL-5 melanoma is 1.96 µM; in the experiment on OVCAR-4 ovarian it was 3.06 µM; in the experiment with SN12C renal, 2.69 µM; in the experiment with NCI-H522 lung, 2.43 µM; with HL-60(TB) leukemia it was 6.32 µM; in the experiment with SNB-19 CNS it was 2.22 µM. Moreover, the TGI was 3.73 µM with SK-OV-3 ovarian, 7.95 µM in the experiment on EKVX NSCLC, 2.46 µM with UO-31 renal and 4.77 µM in the experiment on IGROV1 ovarian.

`COc1ccc(C[C@H](N)C(=O)N2C[C@H](CO)C[C@H](n3ccc(=O)[nH]c3=O)C2)cc1`: the TGI in the experiment with SK-MEL-5 melanoma, in the experiment with OVCAR-4 ovarian, in the experiment with SN12C renal, in the experiment on NCI-H522 lung, in the experiment on HL-60(TB) leukemia and in the experiment with SNB-19 CNS was above 100 µM throughout. Also, the TGI with SK-OV-3 ovarian, in the experiment on EKVX NSCLC, with UO-31 renal and in the experiment on IGROV1 ovarian was above 100 µM throughout.

Regarding `CC(=O)OCc1cc(=O)n(C)c2c3c4c(cc12)c(C)cc(=O)n4CO3`, the TGI with SK-MEL-5 melanoma is 4.18 µM; in the experiment with OVCAR-4 ovarian, 6.56 µM; in the experiment with SN12C renal, 30.8 µM; in the experiment on NCI-H522 lung it was 2.16 µM; with HL-60(TB) leukemia it was 16.2 µM; with SNB-19 CNS, 72.8 µM. The TGI was determined as 51 µM in the experiment with SK-OV-3 ovarian, 11.2 µM in the experiment on EKVX NSCLC, 26.5 µM in the experiment with UO-31 renal and 11.5 µM with IGROV1 ovarian.

For the compound `[N-]=[N+]=NC1CC(n2cc(COCC(F)(F)F)c(=O)[nH]c2=O)OC1CO` (centres undefined), the TGI with SK-MEL-5 melanoma, in the experiment with OVCAR-4 ovarian, with SN12C renal, with NCI-H522 lung, in the experiment with HL-60(TB) leukemia and with SNB-19 CNS was above 100 µM in each case. Moreover, the TGI with SK-OV-3 ovarian, with EKVX NSCLC, in the experiment on UO-31 renal and in the experiment with IGROV1 ovarian was above 100 µM throughout.

`CN(C)CCOC(=O)c1ccc(N)cc1`: the TGI is above 100 µM in the experiment with SK-MEL-5 melanoma; above 100 µM with OVCAR-4 ovarian; above 100 µM with SN12C renal; 68.1 µM in the experiment with NCI-H522 lung; 83.7 µM in the experiment with HL-60(TB) leukemia; above 100 µM in the experiment on SNB-19 CNS. The figures for the TGI with SK-OV-3 ovarian, in the experiment with UO-31 renal and in the experiment on IGROV1 ovarian were above 100 µM, above 100 µM and 74.9 µM, respectively.

Take `O=C1c2ccccc2C(=O)c2c1ccc1c2N=C(c2ccc(F)cc2)CC(c2ccc(Cl)c(Cl)c2)N1` (centres undefined): the TGI in the experiment with SK-MEL-5 melanoma worked out at 31 µM; in the experiment on OVCAR-4 ovarian, 37 µM; in the experiment with SN12C renal it was 32.4 µM; in the experiment on NCI-H522 lung, 20.4 µM; in the experiment with HL-60(TB) leukemia, 35.9 µM; in the experiment on SNB-19 CNS, 25.8 µM. Further, the TGI in the experiment on SK-OV-3 ovarian worked out at 48.9 µM; in the experiment with EKVX NSCLC, 20.3 µM; in the experiment on UO-31 renal it was 23.5 µM; in the experiment on IGROV1 ovarian it was 23.4 µM.

For `C[C@@H]1C[C@]2(C[C@@H](C)[C@H]3C(C[C@@]4(C)CCC[C@@H]5C6=C[C@H](CCC34C)OC6=CC(=O)OC5(C)C)O2)OC1=O` (some centres undefined), the TGI in the experiment on SK-MEL-5 melanoma, with OVCAR-4 ovarian, with SN12C renal, in the experiment with NCI-H522 lung, in the experiment with HL-60(TB) leukemia and in the experiment with SNB-19 CNS was above 51.5 µM in each case. The TGI in the experiment on SK-OV-3 ovarian, in the experiment on EKVX NSCLC, with UO-31 renal and with IGROV1 ovarian was above 51.5 µM each time.

For the compound `CCOC(=O)c1c2c(n3ccc(NC(=O)OC(C)(C)C)cc13)C(=O)c1ncccc1C2=O`, the GI50 is 0.174 µM in the experiment on SK-MEL-5 melanoma; 0.291 µM in the experiment with OVCAR-4 ovarian; 0.071 µM in the experiment with SN12C renal; 0.179 µM in the experiment with NCI-H522 lung; 0.0256 µM with HL-60(TB) leukemia; 0.159 µM in the experiment on SNB-19 CNS. The GI50 with SK-OV-3 ovarian is 0.236 µM; with EKVX NSCLC, 0.168 µM; in the experiment on UO-31 renal it was 0.0153 µM; in the experiment on IGROV1 ovarian, 0.152 µM. The TGI with SK-MEL-5 melanoma is 0.388 µM; in the experiment on OVCAR-4 ovarian it was 3.22 µM; with SN12C renal, 1.21 µM; in the experiment on NCI-H522 lung it was 0.817 µM; in the experiment on HL-60(TB) leukemia, 0.38 µM; in the experiment on SNB-19 CNS, 1.36 µM. Also, the TGI with SK-OV-3 ovarian amounted to 1.48 µM; in the experiment with EKVX NSCLC, 2.03 µM; in the experiment on UO-31 renal, 0.397 µM; in the experiment with IGROV1 ovarian, 2.28 µM.

For the compound `CN(C)CCCNc1c2ccccc2nc2cccc([N+](=O)[O-])c12`, the TGI in the experiment on SK-MEL-5 melanoma was below 0.001 µM; in the experiment with OVCAR-4 ovarian, below 0.001 µM; with SN12C renal it was 0.0137 µM and 0.0343 µM; with NCI-H522 lung it was below 0.001 µM; in the experiment with HL-60(TB) leukemia, 0.0721 µM; in the experiment on SNB-19 CNS, 0.0171 µM and 0.142 µM. In addition, the TGI in the experiment with SK-OV-3 ovarian was 0.0921 µM and 0.0723 µM; in the experiment on EKVX NSCLC, 0.448 µM; in the experiment on UO-31 renal it was 0.0107 µM and 0.0363 µM; in the experiment on IGROV1 ovarian, 0.00491 µM. Further, the GI50 in the experiment with HL-60(TB) leukemia was 0.0175 µM; in the experiment on SNB-19 CNS it was 0.0303 µM; in the experiment with SK-OV-3 ovarian, 0.0204 µM; in the experiment with UO-31 renal, below 0.001 µM.

For `CSc1nc(NC2OCC(O)C(O)C2O)c(N)c(=O)n1C` (centres undefined), the TGI in the experiment with SK-MEL-5 melanoma, with OVCAR-4 ovarian, in the experiment with SN12C renal, with NCI-H522 lung, with HL-60(TB) leukemia and in the experiment with SNB-19 CNS was above 100 µM in each case. Also, the TGI in the experiment with SK-OV-3 ovarian, in the experiment on EKVX NSCLC, in the experiment on UO-31 renal and in the experiment with IGROV1 ovarian was above 100 µM each time.

In the case of `Cc1cc(N=Cc2c(CO)cnc(C)c2O)c(N=Cc2c(CO)cnc(C)c2O)cc1C.[Zn]`, the TGI in the experiment on SK-MEL-5 melanoma, in the experiment on OVCAR-4 ovarian, with SN12C renal, with NCI-H522 lung, with HL-60(TB) leukemia and with SNB-19 CNS was above 100 µM throughout. Besides, the TGI in the experiment with SK-OV-3 ovarian, with EKVX NSCLC, in the experiment on UO-31 renal and in the experiment on IGROV1 ovarian was above 100 µM throughout. For the same compound, the GI50 in the experiment with HL-60(TB) leukemia was above 100 µM.
